# Measured values taken from ChEMBL document CHEMBL1201862, “PubChem BioAssay data set” (2004).
# Calls of active or inactive are those of the source.
# Columns and labels:
# [1] = target: Glyceraldehyde-3-phosphate dehydrogenase (Homo sapiens, UniProt P04406)
# [2] = target: T1, Alkaline phosphatase, tissue-nonspecific isozyme (Homo sapiens, UniProt P05186); test: human TNAP enzyme inhibitors, SAR follow-up, biochemical, luminescent, dose response (AID 1056)
# T1 sequence (P05186 whole entry): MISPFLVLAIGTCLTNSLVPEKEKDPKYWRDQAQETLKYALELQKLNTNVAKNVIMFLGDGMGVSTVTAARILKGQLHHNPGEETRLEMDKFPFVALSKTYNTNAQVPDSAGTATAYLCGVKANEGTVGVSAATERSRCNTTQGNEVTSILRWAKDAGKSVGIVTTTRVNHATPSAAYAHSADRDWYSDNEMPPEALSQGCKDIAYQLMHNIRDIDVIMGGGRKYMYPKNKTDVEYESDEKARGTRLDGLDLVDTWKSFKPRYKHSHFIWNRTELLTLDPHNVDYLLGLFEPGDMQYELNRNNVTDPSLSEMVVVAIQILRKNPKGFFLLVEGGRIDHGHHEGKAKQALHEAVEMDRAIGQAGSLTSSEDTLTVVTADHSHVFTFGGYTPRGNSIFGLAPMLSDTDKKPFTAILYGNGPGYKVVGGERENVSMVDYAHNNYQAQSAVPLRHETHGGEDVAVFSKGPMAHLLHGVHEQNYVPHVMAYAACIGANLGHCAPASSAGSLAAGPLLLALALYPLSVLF
# [3] = Luminescence Cell-Based Dose Retest to Confirm Inhibitors of Cancer Stem Cells. [Related pubchem assays (depositor defined):AID2717, AID2721]; type: functional; conditions: Homo sapiens
# [4] = cytotoxicity in HEK-293T cells, dose response, cytotoxicity control for TCR NF-kB inhibitor project, luminescence, T-cell screen hits (AID 489026); type: functional, cell-based;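 note: cells exposed to compound about 14 hours before the viability readout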
# Nonstructural protein 1 = Nonstructural protein 1 (Influenza A virus, UniProt Q194T2); type: functional, Influenza A virus (A/California/07/2009(H1N1))
# Sequence of Nonstructural protein 1 (Q194T2 whole entry): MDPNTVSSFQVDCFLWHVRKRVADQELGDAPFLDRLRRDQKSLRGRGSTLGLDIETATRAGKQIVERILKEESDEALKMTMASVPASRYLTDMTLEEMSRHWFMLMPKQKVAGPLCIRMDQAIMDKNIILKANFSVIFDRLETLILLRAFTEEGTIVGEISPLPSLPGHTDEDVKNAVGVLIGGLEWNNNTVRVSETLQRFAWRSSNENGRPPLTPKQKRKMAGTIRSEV
# INS1 = test: beta cell apoptosis inhibitors, cytokine rescue, dose response, luminescence, retest (AID 449756); type: functional, cell-based; conditions: Rattus norvegicus;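 note: cell death triggered by IL-1 beta plus TNF-alpha plus IFN-gamma mixture; protective hits raise ATP signal compared with cytokine alone wells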
# [5] = Shn3 3'UTR reporter inhibitors, dose response, cell-based, Clone20 osteoblasts, firefly luciferase, cherry-picked (AID 624132); type: functional;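 note: firefly luciferase luminescence from reporter carrying the Shn3 3'UTR in osteoblasts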
# [6] = HepG2 cell cytotoxicity, dose response, cytotoxicity control for Shn3 inhibitor project, CellTiter-Glo, cherry-picked (AID 624134); type: functional, cell-based
# [7] = control 3'UTR Renilla luciferase suppression, dose response, counter-screen for Shn3 inhibitor project, cell-based, Clone20-Shn3RL, cherry-picked (AID 624133); type: functional
# [8] = target: T2, High affinity choline transporter 1 (Homo sapiens, UniProt Q9GZV3); test: CHT inhibitors, dose response, cell-based, 5-point CRC, membrane potential dye (AID 504840); type: functional
# T2 sequence (Q9GZV3 whole entry): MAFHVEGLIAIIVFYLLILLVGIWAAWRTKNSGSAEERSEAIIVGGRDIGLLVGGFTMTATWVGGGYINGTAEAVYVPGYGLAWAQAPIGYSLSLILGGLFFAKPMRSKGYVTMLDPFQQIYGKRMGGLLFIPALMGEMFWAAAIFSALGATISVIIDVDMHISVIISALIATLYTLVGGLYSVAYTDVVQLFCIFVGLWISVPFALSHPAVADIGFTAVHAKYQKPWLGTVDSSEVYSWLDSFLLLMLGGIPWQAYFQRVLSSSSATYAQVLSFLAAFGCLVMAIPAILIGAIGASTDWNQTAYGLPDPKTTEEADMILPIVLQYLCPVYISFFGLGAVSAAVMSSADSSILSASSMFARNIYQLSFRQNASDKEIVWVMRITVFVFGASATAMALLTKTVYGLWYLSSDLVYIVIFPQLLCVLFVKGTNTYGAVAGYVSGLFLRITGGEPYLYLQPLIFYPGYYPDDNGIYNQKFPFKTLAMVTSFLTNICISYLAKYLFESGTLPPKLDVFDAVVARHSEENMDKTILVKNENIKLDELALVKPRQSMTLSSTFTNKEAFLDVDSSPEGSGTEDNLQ
# [9] = target: T3, RNA-binding protein pos-1 (Caenorhabditis elegans, UniProt G5EF15); test: inhibitors of POS-1/mex-3 RNA binding, dose response, biochemical, fluorescence polarization (AID 1964);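 note: purified POS-1 fused to maltose binding protein made in E. coli; potency of compounds blocking POS-1 binding to fluorescent RNA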
# T3 sequence (G5EF15 whole entry): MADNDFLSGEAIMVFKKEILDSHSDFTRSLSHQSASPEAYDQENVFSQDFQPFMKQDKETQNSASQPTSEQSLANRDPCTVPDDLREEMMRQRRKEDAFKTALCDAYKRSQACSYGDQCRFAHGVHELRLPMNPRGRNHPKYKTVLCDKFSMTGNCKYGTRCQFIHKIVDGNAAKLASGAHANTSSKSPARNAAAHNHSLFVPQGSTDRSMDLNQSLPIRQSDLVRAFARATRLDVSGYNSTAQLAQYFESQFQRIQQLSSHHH
# [10] = target: T4, Zinc finger protein mex-5 (Caenorhabditis elegans, UniProt Q9XUB2); test: MEX-5/TCR-2 RNA interaction inhibitors, dose response, biochemical, C. elegans, fluorescence polarization (AID 1960)
# T4 sequence (Q9XUB2 whole entry): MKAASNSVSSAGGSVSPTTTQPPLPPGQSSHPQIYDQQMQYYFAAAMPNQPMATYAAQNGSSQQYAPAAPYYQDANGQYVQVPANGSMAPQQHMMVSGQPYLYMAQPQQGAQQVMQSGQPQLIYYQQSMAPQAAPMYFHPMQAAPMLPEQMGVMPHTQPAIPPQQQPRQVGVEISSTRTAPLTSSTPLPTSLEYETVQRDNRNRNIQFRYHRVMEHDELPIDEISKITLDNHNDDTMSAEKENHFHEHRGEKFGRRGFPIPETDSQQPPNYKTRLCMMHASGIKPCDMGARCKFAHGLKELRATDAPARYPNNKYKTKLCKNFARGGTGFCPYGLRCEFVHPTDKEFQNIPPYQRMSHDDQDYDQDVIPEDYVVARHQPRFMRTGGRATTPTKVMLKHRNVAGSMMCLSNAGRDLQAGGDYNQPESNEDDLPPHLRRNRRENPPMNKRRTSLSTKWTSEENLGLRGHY
# [11] = target: T5, Endoribonuclease toxin MazF (Escherichia coli K-12, UniProt P0AE70); test: MazF toxin RNase activators, dose response, biochemical, fluorescence, single-stranded RNA substrate, uHTS hits (AID 588481); type: functional
# T5 sequence (P0AE70 whole entry): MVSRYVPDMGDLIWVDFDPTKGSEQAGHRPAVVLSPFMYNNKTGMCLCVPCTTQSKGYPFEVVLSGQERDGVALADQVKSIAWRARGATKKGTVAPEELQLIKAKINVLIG
# [12] = target: T5, Endoribonuclease toxin MazF; test: fluorescent RNA oligo signal without MazF, dose response, counter-screen for MazEF activator project, biochemical, fluorescence, single-stranded RNase substrate (AID 588502); type: functional
# [13] = cytotoxicity in HEK-293T cells, dose response, cytotoxicity control for BCR NF-kB inhibitor project, luminescence, B-cell screen hits (AID 489021); type: functional, cell-based;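 note: HEK-293T cells carrying an NF-kB luciferase reporter; cells exposed to compound for about 14 hours before viability readout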
# BJ [14] = test: cytotoxicity toward BJ-TERT fibroblasts, dose response, cell-based, RAS-independent, luminescence (AID 1933); type: functional; conditions: Homo sapiens
# BJ [15] = test: cells; type: functional, cell-based; conditions: Homo sapiens
# BJ [16] = test: cytotoxicity toward BJ-TERT-LT-ST fibroblasts, dose response, cell-based, RAS-independent, luminescence (AID 1935); type: functional; conditions: Homo sapiens;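 note: BJ fibroblasts immortalized with TERT plus LT and ST oncogenes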
# [17] = cytotoxicity toward DRD oncogenic fibroblasts, dose response, cell-based, non-viral oncogenic, luminescence (AID 1934); type: functional; conditions: Homo sapiens
# [18] = THP-1 cell cytotoxicity, dose response, cytotoxicity control for non-replicating M. tuberculosis project (AID 489025); type: functional
# [19] = HepG2 cell cytotoxicity, dose response, cytotoxicity control for non-replicating M. tuberculosis project (AID 489018); type: functional; conditions: Mycobacterium tuberculosis
# [20] = Vero E6 cell cytotoxicity, dose response, cytotoxicity control for non-replicating M. tuberculosis project, secondary assay (AID 492998); type: functional, VeroE6; conditions: Vero C1008
# cells [21] = type: functional
# [22] = tested on: Streptococcus sp. 'group A'; test: growth inhibition of control SK(-) GAS strain, dose response, counter-screen for streptokinase expression inhibitor project, luminescence, kanamycin, BacTiterGlo, confirmation (AID 1900); type: functional, organism-based
# cells [23] = type: functional, cell-based
# Streptokinase A = target: T6, Streptokinase A (Streptococcus pyogenes serotype M1, UniProt P10520); test: S. pyogenes streptokinase expression inhibitors, potency, dose response, plasminogen activation absorbance, OD405 (AID 1914); type: functional, Streptococcus pyogenes M1 GAS;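 note: secreted streptokinase activity via plasminogen activation per viability signal from cell pellet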
# T6 sequence (P10520 whole entry): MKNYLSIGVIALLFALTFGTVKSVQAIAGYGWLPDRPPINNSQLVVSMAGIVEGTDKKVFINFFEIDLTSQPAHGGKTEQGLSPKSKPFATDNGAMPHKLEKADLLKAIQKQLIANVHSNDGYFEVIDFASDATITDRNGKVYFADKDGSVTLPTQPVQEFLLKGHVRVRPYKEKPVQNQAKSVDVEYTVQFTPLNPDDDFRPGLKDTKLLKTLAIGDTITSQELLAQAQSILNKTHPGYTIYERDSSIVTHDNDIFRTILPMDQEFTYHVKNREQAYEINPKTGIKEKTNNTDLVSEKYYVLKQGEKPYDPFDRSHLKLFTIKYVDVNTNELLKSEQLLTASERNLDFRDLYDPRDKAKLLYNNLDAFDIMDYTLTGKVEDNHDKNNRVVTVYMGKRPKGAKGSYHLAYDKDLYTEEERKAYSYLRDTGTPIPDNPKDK
# cells [24] = type: functional, cell-based; remark: listed apart in the source
# Streptococcus = test: Group A Streptococcus viability loss, dose response, counter-screen for streptokinase expression inhibitor project, luminescence, BacTiterGlo (AID 1915); type: functional, organism-based;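 note: potency for reduction of bacterial viability or growth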
# HEK293 = test: inhibitors of LMP1-driven NF-kB reporter, dose response, cell-based, HEK293, luciferase, cherry-pick (AID 588343); type: functional; conditions: Homo sapiens
# Sequence of Glyceraldehyde-3-phosphate dehydrogenase (P04406 whole entry): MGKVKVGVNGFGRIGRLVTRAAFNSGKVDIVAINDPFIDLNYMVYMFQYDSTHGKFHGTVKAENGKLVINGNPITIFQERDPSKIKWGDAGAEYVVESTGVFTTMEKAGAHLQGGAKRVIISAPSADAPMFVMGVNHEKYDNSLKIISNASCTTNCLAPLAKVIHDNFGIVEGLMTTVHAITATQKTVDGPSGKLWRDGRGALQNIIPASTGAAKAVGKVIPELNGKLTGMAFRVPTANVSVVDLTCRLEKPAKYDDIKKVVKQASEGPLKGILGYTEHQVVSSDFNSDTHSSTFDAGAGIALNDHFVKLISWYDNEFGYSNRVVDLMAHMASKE
smiles,measurement,setting,value
CCOc1ccc(S(=O)(=O)Nc2nc3ccccc3nc2Cl)cc1,IC50,[1],> 100 µM (not active)
same,IC50,[2],> 100 µM (inactive)
Cc1ccnc2c1ccc1c(C)ccnc12,AC50,[3],1.54 µM (active)
same,IC50,[4],> 80 µM (inactive)
same,IC50,Nonstructural protein 1,0.472 µM (active)
same,AC50,INS1,1.92 µM (active)
same,AC50,[5],0.857 µM (active)
same,AC50,[6],> 70 µM (inactive)
same,AC50,[7],> 70 µM (inactive)
Cn1nc(C(=O)O)cc1-c1ccc(F)cc1,IC50,[1],> 100 µM (not active)
same,IC50,[2],> 100 µM (inactive)
CC(C)(C)C(=O)Oc1cccc(Nc2ncnc3ccccc23)c1,IC50,[8],13.8 µM (active)
CCOc1cccc(C2C(C(=O)c3ccc(C)o3)=C(O)C(=O)N2c2nccs2)c1 (stereo not given),EC50,[9],1.41 µM (inconclusive)
same,EC50,[10],1.27 µM (active)
same,EC50,[11],16.9 µM (active)
same,EC50,[12],> 99 µM (inactive)
C=CCN1C(=O)NC(=O)/C(=C(/CC)NC(C)c2ccccc2)C1=O (stereo not given),IC50,[13],> 80 µM (inactive)
same,IC50,[8],1.91 µM (active)
Cc1n[nH]c(C)c1CCCCOc1ccccc1[N+](=O)[O-],IC50,[8],12.6 µM (active)
Cc1cc(S(=O)(=O)c2ccc([N+](=O)[O-])cn2)ccc1Br,EC50,BJ [14],3.26 µM (active)
same,EC50,BJ [15],17.6 µM (active)
same,EC50,BJ [16],17 µM (active)
same,EC50,[17],6.93 µM (inconclusive)
same,CC50,[18],12.2 µM (active)
same,AC50,[3],1.86 µM (active)
same,CC50,[19],18 µM (active)
same,CC50,[20],13.6 µM (active)
same,IC50,cells [21],0.68 µM (active)
same,AC50,[5],3.69 µM (active)
same,AC50,[6],21.4 µM (active)
same,AC50,[7],17.5 µM (active)
CCCCOc1ccc(OCCCC)c2c1NC1(N2)C(=O)N(C(C)=O)c2ccccc21,EC50,[11],> 99 µM (inactive)
same,EC50,[12],> 99 µM (inactive)
Cn1nc(C(F)(F)F)c(-c2ccccc2)c1NC(=O)c1cccnc1,IC50,[8],13.2 µM (active)
COc1ccc(S(=O)(=O)Nc2cnc3ccccc3c2)c(OC)c1,IC50,[1],> 100 µM (not active)
same,IC50,[2],19.5 µM (active)
c1ccc(CN2CCN=C2c2cccnc2)cc1,IC50,[1],> 100 µM (not active)
same,IC50,[2],> 100 µM (inactive)
CCCc1cc(C(=O)N/N=C/c2ccc(CC)s2)c2ccccc2n1,IC50,[4],> 80 µM (inactive)
CCCCNC(=O)/C(C#N)=c1\s/c(=C\c2ccccc2OC(F)F)c(=O)n1CCCOC,EC50,[11],> 99 µM (inactive)
same,EC50,[12],88.5 µM (inactive)
CN(C)c1ccc(/C=N/NC(=O)c2cnc3ccccc3c2)cc1,EC50,[11],> 99 µM (inactive)
same,EC50,[12],26.4 µM (inactive)
CCOc1cccc(/C=N/Nc2ccc(S(=O)(=O)N(CC)CC)cn2)c1O,EC50,[22],6.87 µM (active)
same,EC50,BJ [14],2.86 µM (active)
same,EC50,cells [23],> 350 µM (not active)
same,EC50,Streptokinase A,> 150 µM (not active)
same,EC50,BJ [15],4.12 µM (active)
same,EC50,cells [24],49.6 µM (active)
same,EC50,BJ [16],7.7 µM (active)
same,EC50,[17],3.94 µM (active)
same,EC50,Streptococcus,9.29 µM (active)
same,IC50,[4],> 80 µM (inactive)
same,AC50,HEK293,4.85 µM (active)
same,AC50,INS1,1.12 µM (active)
